Here are results for 16 compounds from patent publication US20240400564A1 (Syndax Pharmaceuticals, Inc, priority 2021, published 2024).

Molecules are shown by their SMILES. pIC50: −log10 of the molar value. Bounds are passed on as bounds.

For one data set, the target named is hERG (Homo sapiens, UniProt Q12809). Put plainly: Patch clamp assay (hERG tail currents, whole-cell).
Data set [1] deals with T1, human Menin and N-terminal portion of human MLL (amino acids 4-43) (Homo sapiens, UniProt O00255).
T1 construct: H-FL-Menin diluted to 4 nM in assay buffer
T1 sequence (O00255 1-610): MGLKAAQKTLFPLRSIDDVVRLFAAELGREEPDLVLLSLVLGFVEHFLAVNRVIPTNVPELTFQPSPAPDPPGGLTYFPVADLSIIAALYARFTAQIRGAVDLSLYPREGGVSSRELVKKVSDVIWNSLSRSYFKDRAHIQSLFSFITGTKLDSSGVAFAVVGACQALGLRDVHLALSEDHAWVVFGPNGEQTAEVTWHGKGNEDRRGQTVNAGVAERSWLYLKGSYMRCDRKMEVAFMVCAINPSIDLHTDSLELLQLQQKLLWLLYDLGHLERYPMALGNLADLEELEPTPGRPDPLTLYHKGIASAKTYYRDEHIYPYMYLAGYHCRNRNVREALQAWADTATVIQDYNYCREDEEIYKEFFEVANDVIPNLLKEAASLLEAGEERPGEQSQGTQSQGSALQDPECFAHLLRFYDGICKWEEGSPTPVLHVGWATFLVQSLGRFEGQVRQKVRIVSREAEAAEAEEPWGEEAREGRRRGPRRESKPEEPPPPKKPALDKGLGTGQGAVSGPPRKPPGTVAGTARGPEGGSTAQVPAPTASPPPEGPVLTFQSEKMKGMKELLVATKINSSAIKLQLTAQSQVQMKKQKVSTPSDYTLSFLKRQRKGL
Put plainly: Menin-MLL competition assay (HTRF). It counts as binding. The conditions noted are these: 1 hr incubation. An excerpt: Menin-MLL is a competition assay between human Menin and N-terminal portion of human MLL representing amino acids 4-43 of the protein. The interaction between Menin and MLL peptide was monitored by HTRF employing Terbium labeled anti-His6 antibody directed to the N-terminal His6-tag on recombinant Menin and FITC group covalently attached to the MLL peptide. The N-terminal fragment of MLL, retained in all MLL fusion proteins, is involved in the interactions with Menin, and this protein-protein interaction is critical for the MLL fusion proteins mediated leukemogenic transformations.
For IC50 determination test compounds were prepared as 10 mM DMSO stock solutions. Considering DMSO as the vehicle in the assay system. Lower sub-stocks of 50 μM were prepared from the 10 mM stock solution. To test the compounds in assay, 3.16-fold serial dilutions are made in 100% DMSO. Mid-stock of 50×compounds (50 μM) were serially diluted (3.16 fold) in 100% DMSO in Polypropylene plate. In assay plate 1 micro-litre of the previously prepared compound dilution was stamped. H-FL-Menin diluted to 4 nM in assay buffer (50 mM Tris-HCl, pH 7.4, 50 mM NaCl, freshly prepared 1 mM DTT, 0.01% BSA, 0.005% Triton X-100) was pre-incubated with 8 nM anti-His6-Tb for 30 min at room temperature. FITC-MLL-4-43 was diluted to 2 nM in assay buffer and 25 μL was dispensed into each well of the assay plate followed by addition of 25 μl of pre-incubated H-FL-Menin and anti-His6-Tb mixture. Final concentration H-FL-Menin diluted to 1 nM in assay plate with 2 nM anti-His6-Tb and 1 nM FITC-MLL-4-43. After 1 hr incubation at room temperature, the HTRF signal was measured on the Spark multi-label plate reader. Resulting data were captured as a ratio of RFU520/RFU485×1000. The max values were obtained from 0% inhibition in presence of 2% DMSO and the min. values were 100% inhibition in presence of 1 μM reference compound.

Chain of hERG (Q12809 whole entry, the tested form may be a part): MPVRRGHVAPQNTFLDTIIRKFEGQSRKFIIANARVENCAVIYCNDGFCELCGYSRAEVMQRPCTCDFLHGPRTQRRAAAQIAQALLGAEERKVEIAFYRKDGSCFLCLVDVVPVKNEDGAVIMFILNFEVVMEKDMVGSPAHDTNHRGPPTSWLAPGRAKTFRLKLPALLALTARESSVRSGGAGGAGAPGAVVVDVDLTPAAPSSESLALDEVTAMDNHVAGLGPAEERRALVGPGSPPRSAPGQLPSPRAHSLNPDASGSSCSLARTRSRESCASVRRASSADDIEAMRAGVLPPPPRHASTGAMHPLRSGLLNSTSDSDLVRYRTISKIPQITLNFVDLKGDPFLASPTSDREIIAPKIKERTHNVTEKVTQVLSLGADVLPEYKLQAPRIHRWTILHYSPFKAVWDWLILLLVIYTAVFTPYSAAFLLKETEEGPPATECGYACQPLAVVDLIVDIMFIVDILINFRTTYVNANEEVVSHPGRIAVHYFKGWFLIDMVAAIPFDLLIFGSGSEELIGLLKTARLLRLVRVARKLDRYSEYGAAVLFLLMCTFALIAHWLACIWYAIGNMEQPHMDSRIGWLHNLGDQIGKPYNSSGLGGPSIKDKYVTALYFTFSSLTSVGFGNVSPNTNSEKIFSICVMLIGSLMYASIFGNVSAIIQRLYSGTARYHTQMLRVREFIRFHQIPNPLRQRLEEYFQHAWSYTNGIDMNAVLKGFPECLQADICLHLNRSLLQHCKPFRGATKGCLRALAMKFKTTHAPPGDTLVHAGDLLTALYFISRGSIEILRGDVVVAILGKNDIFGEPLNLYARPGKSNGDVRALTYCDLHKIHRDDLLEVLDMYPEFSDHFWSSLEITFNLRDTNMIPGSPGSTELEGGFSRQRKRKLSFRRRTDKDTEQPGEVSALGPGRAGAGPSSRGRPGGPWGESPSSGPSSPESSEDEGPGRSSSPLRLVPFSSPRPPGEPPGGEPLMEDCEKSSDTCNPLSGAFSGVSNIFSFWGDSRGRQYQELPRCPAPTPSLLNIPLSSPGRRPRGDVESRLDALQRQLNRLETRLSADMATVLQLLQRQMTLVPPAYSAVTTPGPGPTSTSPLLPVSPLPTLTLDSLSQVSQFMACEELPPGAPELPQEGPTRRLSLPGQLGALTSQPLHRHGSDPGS

On to `CCN(C(=O)c1cc(F)ccc1Oc1cncnc1N1CC2(CCN(C[C@@H]3CC[C@@H](NS(C)(=O)=O)CO3)CC2)C1)C(C)C` [Example 1, N-Ethyl-5-fluoro-N-isopropyl-2-((4-(7-(((2S,5R)-5-(methylsulfonamido)tetrahydro-2H-pyran-2-yl)methyl)-2,7-diazaspiro[3.5]nonan-2-yl)pyrimidin-5-yl)oxy)benzamide], for which the “hERG % Remaining” value on hERG (10 μM compound) is “+++ (≥66%)”; on hERG (30 μM compound), “++ (233% and ≤66%)”. This compound gave a pIC50 in data set [1] above 7.00.

Regarding `CCN(C(=O)c1cc(F)ccc1Oc1cncnc1N1CC2(CCN(C[C@@H]3CC[C@@H](NS(=O)(=O)CC)CO3)CC2)C1)C(C)C` [Example 2, N-Ethyl-2-((4-(7-(((2S,5R)-5-(ethylsulfonamido)tetrahydro-2H-pyran-2-yl)methyl)-2,7-diazaspiro[3.5]nonan-2-yl)pyrimidin-5-yl)oxy)-5-fluoro-N-isopropylbenzamide], the “hERG % Remaining” value on hERG (10 μM compound) and on hERG (30 μM compound) was “+++ (≥66%)” throughout. The compound further gave a pIC50 in data set [1] above 7.00.

The compound `C[C@@H]1COC[C@H](C)N1C(=O)c1cc(F)ccc1Oc1cncnc1N1CC2(CCN(C[C@@H]3CC[C@@H](NS(=O)(=O)C4COC4)CO3)CC2)C1` [Example 27, N-((3R,6S)-6-((2-(5-(2-((3S,5R)-3,5-Dimethylmorpholine-4-carbonyl)-4-fluorophenoxy)pyrimidin-4-yl)-2,7-diazaspiro[3.5]nonan-7-yl)methyl)tetrahydro-2H-pyran-3-yl)oxetane-3-sulfonamide] had a pIC50 in data set [1] above 7.00.

In the case of `C[C@@H]1COC[C@@H](C)N1C(=O)c1cc(F)ccc1Oc1cncnc1N1CC2(CCN(C[C@@H]3CC[C@@H](NS(C)(=O)=O)CO3)CC2)C1` [Example 28, N-((3R,6S)-6-((2-(5-(2-((3R,5R)-3,5-Dimethylmorpholine-4-carbonyl)-4-fluorophenoxy)pyrimidin-4-yl)-2,7-diazaspiro[3.5]nonan-7-yl)methyl)tetrahydro-2H-pyran-3-yl)methanesulfonamide], the pIC50 in data set [1] was above 7.00.

`CCS(=O)(=O)N[C@@H]1CC[C@@H](CN2CCC3(CC2)CN(c2ncncc2Oc2ccc(F)cc2C(=O)N2[C@H](C)COC[C@H]2C)C3)OC1` [Example 29, N-((3R,6S)-6-((2-(5-(2-((3R,5R)-3,5-Dimethylmorpholine-4-carbonyl)-4-fluorophenoxy)pyrimidin-4-yl)-2,7-diazaspiro[3.5]nonan-7-yl)methyl)tetrahydro-2H-pyran-3-yl)ethanesulfonamide] gave a pIC50 in data set [1] above 7.00.

In data set [1], `CC(C)S(=O)(=O)N[C@@H]1CC[C@@H](CN2CCC3(CC2)CN(c2ncncc2Oc2ccc(F)cc2C(=O)N2[C@H](C)COC[C@H]2C)C3)OC1` [Example 30, N-((3R,6S)-6-((2-(5-(2-((3R,5R)-3,5-Dimethylmorpholine-4-carbonyl)-4-fluorophenoxy)pyrimidin-4-yl)-2,7-diazaspiro[3.5]nonan-7-yl)methyl)tetrahydro-2H-pyran-3-yl)propane-2-sulfonamide] showed a pIC50 above 7.00.

Regarding `C[C@@H]1COC[C@@H](C)N1C(=O)c1cc(F)ccc1Oc1cncnc1N1CC2(CCN(C[C@@H]3CC[C@@H](NS(=O)(=O)C4CC4)CO3)CC2)C1` [Example 31, N-((3R,6S)-6-((2-(5-(2-((3R,5R)-3,5-dimethylmorpholine-4-carbonyl)-4-fluorophenoxy)pyrimidin-4-yl)-2,7-diazaspiro[3.5]nonan-7-yl)methyl)tetrahydro-2H-pyran-3-yl)cyclopropanesulfonamide], in data set [1], the negative-log IC50 (pIC50) was above 7.00.

Consider `C[C@@H]1COC[C@@H](C)N1C(=O)c1cc(F)ccc1Oc1cncnc1N1CC2(CCN(C[C@@H]3CC[C@@H](NS(=O)(=O)C4COC4)CO3)CC2)C1` [Example 32, N-((3R,6S)-6-((2-(5-(2-((3R,5R)-3,5-Dimethylmorpholine-4-carbonyl)-4-fluorophenoxy)pyrimidin-4-yl)-2,7-diazaspiro[3.5]nonan-7-yl)methyl)tetrahydro-2H-pyran-3-yl)oxetane-3-sulfonamide], for which, in data set [1], the pIC50 was above 7.00.

In data set [1], `CCS(=O)(=O)N[C@@H]1CC[C@@H](CN2CCC3(CC2)CN(c2ncncc2Oc2ccc(F)cc2C(=O)N(CCOC)C(C)C)C3)OC1` [Example 35, 2-((4-(7-(((2S,5R)-5-(Ethylsulfonamido)tetrahydro-2H-pyran-2-yl)methyl)-2,7-diazaspiro[3.5]nonan-2-yl)pyrimidin-5-yl)oxy)-5-fluoro-N-isopropyl-N-(2-methoxyethyl)benzamide] gave a pIC50 above 7.00.

Compound `CCS(=O)(=O)N[C@@H]1CC[C@@H](CN2CCC3(CC2)CN(c2ncncc2Oc2ccc(F)cc2C(=O)N2[C@H](C)CCC[C@@H]2C)C3)OC1` [Example 36, N-((3R,6S)-6-((2-(5-(2-((2S,6R)-2,6-Dimethylpiperidine-1-carbonyl)-4-fluorophenoxy)pyrimidin-4-yl)-2,7-diazaspiro[3.5]nonan-7-yl)methyl)tetrahydro-2H-pyran-3-yl)ethanesulfonamide] showed a pIC50 in data set [1] above 7.00.

The compound `CCNC(=O)N[C@@H]1CC[C@@H](CN2CCC3(CC2)CN(c2ncncc2Oc2ccc(F)cc2C(=O)N(CC)C(C)C)C3)OC1` [Example 39, N-Ethyl-2-((4-(7-(((2S,5R)-5-(3-ethylureido)tetrahydro-2H-pyran-2-yl)methyl)-2,7-diazaspiro[3.5]nonan-2-yl)pyrimidin-5-yl)oxy)-5-fluoro-N-isopropylbenzamide] gave a negative-log IC50 (pIC50) in data set [1] above 7.00.

Regarding `C[C@H]1COCCN1C(=O)c1cc(F)ccc1Oc1cncnc1N1CC2(CCN(C[C@@H]3CC[C@@H](NS(=O)(=O)C4CC4)CO3)CC2)C1` [Example 40, N-((3R,6S)-6-((2-(5-(4-Fluoro-2-((S)-3-methylmorpholine-4-carbonyl)phenoxy)pyrimidin-4-yl)-2,7-diazaspiro[3.5]nonan-7-yl)methyl)tetrahydro-2H-pyran-3-yl)cyclopropanesulfonamide], the pIC50 in data set [1] was above 7.00.

`CCN(C(=O)c1cc(F)ccc1Oc1cncnc1N1CC2(CCN(C[C@@H]3CC[C@@H](NC(=O)NCC4CC4)CO3)CC2)C1)C(C)C` [Example 42, 2-((4-(7-(((2S,5R)-5-(3-(Cyclopropylmethyl)ureido)tetrahydro-2H-pyran-2-yl)methyl)-2,7-diazaspiro[3.5]nonan-2-yl)pyrimidin-5-yl)oxy)-N-ethyl-5-fluoro-N-isopropylbenzamide] gave a pIC50 in data set [1] above 7.00.

Consider `CCS(=O)(=O)N[C@@H]1CC[C@@H](CN2CCC3(CC2)CN(c2ncncc2Oc2ccc(F)cc2C(=O)N(C(C)C)[C@@H]2CCOC2)C3)OC1` [Example 46, 2-((4-(7-(((2S,5R)-5-(Ethylsulfonamido)tetrahydro-2H-pyran-2-yl)methyl)-2,7-diazaspiro[3.5]nonan-2-yl)pyrimidin-5-yl)oxy)-5-fluoro-N-isopropyl-N-((R)-tetrahydrofuran-3-yl)benzamide], for which, in data set [1], the negative-log IC50 (pIC50) is above 7.00.

As for `CCS(=O)(=O)N[C@@H]1CC[C@@H](CN2CCC3(CC2)CN(c2ncncc2Oc2ccc(F)cc2C(=O)N(C(C)C)C2COC2)C3)OC1` [Example 48, 2-((4-(7-(((2S,5R)-5-(Ethylsulfonamido)tetrahydro-2H-pyran-2-yl)methyl)-2,7-diazaspiro[3.5]nonan-2-yl)pyrimidin-5-yl)oxy)-5-fluoro-N-isopropyl-N-(oxetan-3-yl)benzamide], the pIC50 in data set [1] is above 7.00.

As for `COCCN(C(=O)c1cc(F)ccc1Oc1cncnc1N1CC2(CCN(C[C@@H]3CC[C@@H](NS(=O)(=O)C4CC4)CO3)CC2)C1)C(C)C` [Example 51, 2-((4-(7-(((2S,5R)-5-(Cyclopropanesulfonamido)tetrahydro-2H-pyran-2-yl)methyl)-2,7-diazaspiro[3.5]nonan-2-yl)pyrimidin-5-yl)oxy)-5-fluoro-N-isopropyl-N-(2-methoxyethyl)benzamide], the pIC50 in data set [1] was above 7.00.
